PubChem BioAssay (NCI)
Values joined by “and” are separate entries in the source; they are usually repeats but may differ in a detail not shown here. Equal values may be shown once.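 Test compounds were applied to cells in 96-well plates for 48 hours at 5 doses. Abbreviation: GI50, concentration required for 50% inhibition of growth. Definition used: TGI = concentration required for complete inhibition of growth.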

Columns and labels:
Experiment in all cases: DTP human tumour cell line panel, 48 h
OVCAR-8 ovarian = tested on: OVCAR-8 ovarian
OVCAR-5 ovarian = tested on: OVCAR-5 ovarian
SK-MEL-28 melanoma = tested on: SK-MEL-28 melanoma
KM12 colon = tested on: KM12 colon
RPMI-8226 leukemia = tested on: RPMI-8226 leukemia
M14 melanoma = tested on: M14 melanoma
RXF 393 renal = tested on: RXF 393 renal
NCI-H522 lung = tested on: NCI-H522 lung
NCI-H23 lung = tested on: NCI-H23 lung
HOP-62 NSCLC = tested on: HOP-62 NSCLC

Row | SMILES | GI50 (OVCAR-8 ovarian) [µM] | TGI (OVCAR-8 ovarian) | GI50 (OVCAR-5 ovarian) [µM] | TGI (OVCAR-5 ovarian) [µM] | GI50 (SK-MEL-28 melanoma) [µM] | TGI (SK-MEL-28 melanoma) [µM] | GI50 (KM12 colon) [µM] | TGI (KM12 colon) | GI50 (RPMI-8226 leukemia) [µM] | TGI (RPMI-8226 leukemia) [µM] | GI50 (M14 melanoma) [µM] | TGI (M14 melanoma) [µM] | GI50 (RXF 393 renal) [µM] | TGI (RXF 393 renal) [µM] | GI50 (NCI-H522 lung) [µM] | TGI (NCI-H522 lung) | GI50 (NCI-H23 lung) [µM] | TGI (NCI-H23 lung) | TGI (HOP-62 NSCLC) [µM] | GI50 (HOP-62 NSCLC) [µM]
1 | Cc1ccc([I+]c2ccc(C)cc2)cc1 | 2.2 | 46.5 µM | 39.2 | > 100 | 10.6 | > 100 | 4.27 | 52.2 µM | 1.16 | 50 | 10.8 | > 100 | 36.6 | > 100 | 12.3 | > 100 µM | 2.03 | 93.4 µM |  | 
2 | CN(CC(=O)O)S(=O)(=O)c1ccc(Cl)cc1 |  | > 100 µM |  | > 100 |  | > 100 |  | > 100 µM |  | > 100 |  | > 100 |  | > 100 |  | > 100 µM |  | > 100 µM |  | 
3 | S=C1NC(c2ccccc2)=NC(Cc2ccccc2)(c2ccccc2)N1c1ccccc1 (stereo not drawn) |  | > 100 µM |  | > 100 |  | > 100 |  | > 100 µM |  | > 100 |  | > 100 |  | > 100 |  |  |  | > 100 µM | > 100 | 
4 | COc1cc(/C=C(\C)c2ccc3c(c2)OCO3)cc(OC)c1OC |  | > 100 µM |  | > 100 |  | > 100 |  | > 100 µM |  |  |  | > 100 |  | 99.5 |  | 69 µM |  | > 100 µM | > 100 | 
5 | Cc1cn2c(/C=N/NC3=NCCN3)c(-c3ccc(Cl)c([N+](=O)[O-])c3)nc2s1 | 1.12 | 2.45 µM | 6.75 | 17.2 |  |  | 0.872 | 1.9 µM | 1.27 | > 50 | 1.06 | 2.17 |  |  |  |  | 5.62 | 27 µM | 7.17 | 1.71
6 | Clc1ccc(Nc2ncnc3ccccc23)cc1 | 59.2 | > 100 µM | > 100 | > 100 | > 100 | > 100 | 47.7 | > 100 µM |  |  | 54.9 | > 100 | 47.7 | > 100 | 15.5 | 55.8 µM | 74.6 | > 100 µM | > 100 | > 100
7 | COc1ncnn2ccc(-c3cnc4nc(C)n(Cc5nnc(C(C)F)o5)c4c3)c12 (stereo not drawn) | 0.245 | > 100 µM | 0.343 |  | 0.298 | 13.8 | 0.116 | > 100 µM | 0.201 | > 45.6 | 0.24 | > 40.5 | 0.247 | 0.665 | 0.0859 | 0.363 µM | 0.109 | 0.597 µM |  | 
8 | CCOC(=O)Cc1csc(Nc2nc(O)c(C3=c4ccccc4=NC3=O)s2)n1 | 43.7 | > 100 µM | 43.6 | > 100 | 45.7 | > 100 | 20.4 | 68.9 µM | 20.9 | 53.2 |  |  | 41.3 | > 100 | 27.2 | 97.6 µM | 56 | > 100 µM | 39.5 | 20.6
9 | Nc1n[nH]c2ccc([C@H]3[C@@H]4C5CCC(C5)[C@@H]4c4c(ccc5[nH]ncc45)N3S(=O)(=O)C3CC3)cc12 (stereo partly drawn) | 0.213 | > 41.1 µM | 0.272 | 26.1 | 2 | 26 | 0.199 | 6.32 µM | 0.176 | 7.46 | 0.146 | 15.1 |  |  | 0.183 | 2.56 µM | 0.225 | 9.31 µM | 20.7 | 0.335
10 | CN(CCNc1ccc(C(=N)N)cc1)c1ccc(C(=N)N)cc1 | 50 | > 100 µM | > 100 | > 100 | 36.4 | > 100 | 38.3 | > 100 µM |  |  | 57 | > 100 |  |  | 27.5 | > 100 µM | 21.6 | > 100 µM | > 100 | 50
11 | O=C1C2=C(c3ccccc31)C(c1ccccc1Cl)NC(=S)N2 (stereo not drawn) |  | > 100 µM |  | > 100 |  | > 100 |  | > 100 µM |  | > 100 |  | > 100 |  |  |  | > 100 µM |  | > 100 µM | > 100 | 
12 | NNC(=S)N/N=C/c1ccccn1 | 2.28 | > 100 µM | 3.68 | > 100 | 4.47 | > 100 | 2.62 | > 100 µM | 2.44 | > 100 |  |  | 2.5 | > 100 | 0.258 | 0.859 µM | 3.54 | > 100 µM | 35.3 | 1.44
13 | Cc1cc2c(=O)cc(-c3ccc(O)cc3)oc2c(C(=O)O)c1C |  | > 100 µM |  | > 100 |  | > 100 |  | > 100 µM |  | > 100 |  | > 100 |  |  |  | > 100 µM |  | > 100 µM | > 100 | 
14 | Cc1ccccc1C(C#N)/C(=N/NC(N)=S)C(=O)Nc1c(C)cccc1C (stereo not drawn) |  | > 100 µM |  | > 100 |  | > 100 |  | > 100 µM |  | > 100 |  | > 100 |  | > 100 |  |  |  | > 100 µM | > 100 | 
15 | Cn1cnc([N+](=O)[O-])c1Sc1nccn1-c1ccccc1 |  | > 100 µM |  | > 100 |  | > 100 |  | > 100 µM |  | > 100 |  | > 100 |  |  |  | 24.5 µM |  | 79.6 µM | > 100 | 
16 | O=C(O)c1ccc(NCn2nc(-c3ccccc3O)oc2=S)cc1O | > 100 | > 100 µM | > 100 | > 100 | > 100 | > 100 | > 100 | > 100 µM |  |  | > 100 | > 100 | > 100 | > 100 | > 100 | > 100 µM | > 100 | > 100 µM | > 100 | > 100
17 | Nc1cc2c(c3ccccc13)C(CCl)CN2C(=O)c1cc2cc(NC(=O)c3cc4ccccc4o3)ccc2[nH]1 (stereo not drawn) | > 0.11 | 0.00407 µM and < 0.11 µM | > 0.11 | 138 |  |  | > 0.11 | 0.0235 µM and < 0.11 µM |  |  |  |  |  |  | > 0.11 | 0.00332 µM and < 0.11 µM |  | 0.027 µM and 0.125 µM | < 0.11 | 
